From US20230093594A1, “PANTETHENOYLCYSTEINE DERIVATIVES AND USES THEREOF” (Comet Therapeutics, Inc., priority 2019, published 2023)

Tests used:
[1] = tested on: Venular endothelial cells co-cultured with macrophages (Mphg system); assay: BioMAP Mphg system (TLR2 ligand, 24h); type: cell-based, human
Method: (§1) The BioMAP platform is an in vitro phenotypic profiling technology that screened the compounds of the present disclosure (hereafter indicated as test agents) in human primary cell-based systems modelling complex tissue and disease states. The BioMAP assays were performed using the Eurofin's BioMAP Technology Platform as referenced in below articles to model different diseases on primary cell-based model systems. These systems consisted of either single primary cell types or co-culture cells. Adherent cell types were cultured or co-cultured in 96 or 384-well plates until confluence followed by the addition of compounds prepared in DMSO at a final concentration of <0.1%. In each cell-based system, primary cells from heathy donors (2-6 donors) were pooled and treated with compounds at 1 and 10 μM dose 1h prior to stimulation and remain in culture as indicated in Example 41, Example 42, Example 43, Example 44, Example 45, Example 46, Example 47, Example 48, Example 49, Example 50, Example 51, Example 52.
Following the general procedure as described in Example 40, Venular endothelial cells co-cultured with macrophages (Mphg system) and treated with TLR2 ligand for 24h in the presence or absence of the compounds to mimic cardiovascular inflammation, restenosis and chronic inflammation. Biomarkers read out were; MCP-1, MIP-1α, VCAM-1, CD40, E-selectin, CD69, IL-8, IL-1α, M-CSF, sIL-10 and SRB.

[2] = tested on: MMA Patient fibroblasts (TSI 3739); assay: Mitochondrial morphology imaging in MMA patient fibroblasts (TSI 3739); type: cell-based; conditions: image compared with fragmented mitochondria in vehicle control
[3] = tested on: Peripheral blood mononuclear cells co-cultured with venular endothelial cells (Sag system); assay: BioMAP SAg system (T-cell ligands); type: cell-based, human; conditions: procedure of Example 44 (SAg), 10 μM
Method: as §1, with “In each cell-based system, primary cells from heathy donors (2-6 donors) were pooled and treated with compounds at 1 and 10 μM dose 1h prior to stimulation and remain in culture as indicated in Example 41, Example 42, Example 43, Example 44, Example 45, Example 46, Example 47, Example 48, Example 49, Example 50, Example 51, Example 52.” left out
Following the general procedure as described in Example 40, Peripheral blood mononuclear cells were co-cultured with venular endothelial cells and treated with […] (T-cell ligands) (Sag system) in the presence or absence of compounds to model autoimmune and chronic inflammation Biomarkers read out were; MCP-1, CD38, CD40, E-selectin, CD69, IL-8, MIG, PBMC cytotoxicity, Proliferation and SRB.

[4] = tested on: Bronchial epithelial cells (BE3C system); assay: BioMAP BE3C system (IL-1β, TNFα, IFNγ, 24h); type: cell-based, human; conditions: procedure of Example 47 (BE3C), 10 μM
Method: as §1, with “In each cell-based system, primary cells from heathy donors (2-6 donors) were pooled and treated with compounds at 1 and 10 μM dose 1h prior to stimulation and remain in culture as indicated in Example 41, Example 42, Example 43, Example 44, Example 45, Example 46, Example 47, Example 48, Example 49, Example 50, Example 51, Example 52.” left out
Following the general procedure as described in Example 40, Bronchial epithelial cells (BE3C system) were treated with IL-1β, TNFα and IFNγ for 24h in the presence or absence of the compounds to model lung inflammation and chronic obstructive pulmonary disease (COPD). Biomarkers read out were; ICAM-1, uPAR, IP-10, I-TA C, IL-A, MIG, EGFR, HLA-DR, IL-1α, Keratin 8/18, MMP-1, MMP-9, PAI-1, SRB, tPA, uPA.

[5] = tested on: Dermal fibroblasts (HDF3CGF system); assay: BioMAP HDF3CGF system (IL-1β, TNFα, IFNγ, EGF, bFGF, PDGF-BB, 24h); type: cell-based, human; conditions: procedure of Example 49 (HDF3CGF), 10 μM
Method: as §1
Following the general procedure as described in Example 40, Dermal fibroblasts (HDF3CGF system) were treated with IL-1β, TNFα and IFNγ, EGF, bFGF and PDGF-BB for 24h in the presence or absence of the compounds to model fibrosis and chronic inflammation. Biomarkers read out were; MCP-1, VCAM-1, ICAM-1, Collagen-I, Collagen-III, IP-10, I-TAC, IL-8, MIG, EGFR, M-CSF, MMP-1, PAI-1, SRB, TIMP-1, TIMP-2 and proliferation was measured for 72h.

[6] = tested on: Keratinocytes co-cultured with dermal fibroblast (KF3CT system); assay: BioMAP KF3CT system (IL-1β, TNFα, IFNγ, TGFβ, 24h); type: cell-based, human; conditions: procedure of Example 50 (KF3CT), 1 μM
Method: as §1
Following the general procedure as described in Example 40, Keratinocytes were co-cultured with dermal fibroblast (KF3CT system) and treated with IL-1β, TNFα, IFNγ and TGFβ for 24h in the presence or absence of the compounds to model psoriasis, dermatitis and skin biology. Biomarkers read out were; MCP-1, ICAM-1, IP-10, IL-8, MIG, IL-1α, MMP-9, PAI, SRB, TIMP-2, uPA.

[7] = tested on: human primary cell-based systems; assay: BioMAP assay, general procedure of Example 40 (system not stated)
Method: as §1

[8] = tested on: Peripheral blood mononuclear cells co-cultured with venular endothelial cells (HUVEC) (LPS system); assay: BioMAP LPS system (LPS, 24h); type: cell-based, human; conditions: procedure of Example 43 (LPS)
Method: as §1
Following the general procedure as described in Example 40, Peripheral blood mononuclear cells co-cultured with venular endothelial cells (HUVEC) (LPS system) were stimulated with LPS for 24h in the presence or absence of compounds, to model cardiovascular disease and chronic inflammation. Biomarkers read out were; MCP-1, VCAM-1, Thrombomodulin, Tissue Factor, CD40, E-selectin, CD69, IL-8, IL-1α, M-CSF, sPGE2, SRB and TNFα.

[9] = tested on: Bronchial epithelial cells co-cultured with dermal fibroblast (BF4T system); assay: BioMAP BF4T system (TNFα and IL-4, 24h); type: cell-based, human; conditions: procedure of Example 46 (BF4T), 10 μM
Method: as §1
Following the general procedure as described in Example 40, Bronchial epithelial cells were co-cultured with dermal fibroblast (BF4T system) and were treated with TNFα. and IL-4 for 24h in the presence or absence of the compounds to model asthma, allergy, fibrosis, lung inflammation. Biomarkers read out were; MCP-1, Eotaxin-3, VCAM-1, ICAM-1, CD90, IL-8, IL-la, keratin 8/18, MMP-1, MMP-3, MMP-9, PAI-1, SRB, tPA, uPA.

[10] = tested on: Venular Endothelial cells (HUVEC) (4H system); assay: BioMAP 4H system (IL-4 and histamine, 24h); type: cell-based, human; conditions: procedure of Example 42, 10 μM
Method: as §1
Following the general procedure as described in Example 40, Venular Endothelial cells (HUVEC) (4H system) were treated with IL-4 and histamine for 24h to model Th2 driven allergy and autoimmunity in the presence or absence of compounds. […]

[11] = tested on: MMA Patient fibroblasts (GM00371); assay: Mitochondrial morphology imaging in MMA patient fibroblasts (GM00371); type: cell-based; conditions: image compared with fragmented mitochondria in vehicle control
[12] = tested on: Peripheral blood mononuclear cells co-cultured with B-cells (BT system); assay: BioMAP BT system (a-IgM and TCR ligands, 72h); type: cell-based, human; conditions: procedure of Example 45 (BT)
Method: as §1
Following the general procedure as described in Example 40, Peripheral blood mononuclear cells were co-cultured with B-cells (BT system) were treated with either a-IgM and TCR ligands for 72h in the presence or absence of the compounds to model asthma, allergy, oncology and autoimmunity. Biomarkers read out were; B-cell proliferation, PBMC cytotoxicity, secreted IgG, sIL-17A, sIL-17F, siL-2, sIL-6 and s-TNFα.

[13] = tested on: Venular Endothelial cells (HUVEC) (3C system); assay: BioMAP 3C system (IL-1β, TNFα, IFNγ, 24h); type: cell-based, human; conditions: procedure of Example 41 (3C), 10 μM
Method: as §1, with “In each cell-based system, primary cells from heathy donors (2-6 donors) were pooled and treated with compounds at 1 and 10 μM dose 1h prior to stimulation and remain in culture as indicated in Example 41, Example 42, Example 43, Example 44, Example 45, Example 46, Example 47, Example 48, Example 49, Example 50, Example 51, Example 52.” left out
Following the general procedure as described in Example 40, Venular Endothelial cells (HUVEC) (3C system) were treated with IL-1β, TNFα, IFNγ for 24h to model Th1 driven cardiovascular and chronic inflammation diseases in the presence or absence of the compounds. Biomarker read out were; Tissue Factor, ICAM-1, E-selectin, uPAR (CD87), IL-8, MIG, HLA-DR, proliferation and SRB (Sulfo-rhodamine i.e., staining for protein content).

[14] = procedure of Example 52 (Mphg), 10 μM

`COC(=O)CCC(=O)SC[C@H](NC(=O)CCNC(=O)[C@H](O)C(C)(C)CO)C(=O)OC` [Compound 8, methyl 4-[[(2R)-2-[3-[(2R)-2,4-dihydroxy-3,3-dimethylbutanamido]propanamido]-3-methoxy-3-oxopropyl]sulfanyl]-4-oxobutanoate] was tested, and the “% decrease in CD69” value ([1]; procedure of Example 52 (Mphg), 1 μM) was no less than 20%, the “% decrease in E-Selectin” value [1, 14] was no less than 10% and the “% decrease in IL-8” value [1, 14] was no less than 20%. For the same molecule, the “% decrease in α-SMA” value ([1]; procedure of Example 52, 1 μM) was no less than 10%, the “% increase in MMP-1” value ([1]; procedure of Example 52, 1 μM) was no less than 10% and the “mitochondrial morphology (elongation and networking of mitochondria)” value [2] was “elongation and networking of mitochondria promoted”. For the same molecule, the “% increase in CD69” value [3] was no less than 10%, the “% decrease in uPA” value [4] was no less than 10% and the “% increase in PAI-I” value [4] was no less than 10%. The “% decrease in TIMP-1” value [5] was no less than 10%, the “% decrease in TIMP-2” value [5] was no less than 10% and the “% increase in Collagen III” value [5] was no less than 20%. The “% decrease in MMP-9” value [6] was no less than 10%, the “% decrease in Serum Amyloid A” value ([7]; procedure of Example 40, 1 μM) was no less than 10% and the “% decrease in VCAM-1” value ([7]; procedure of Example 40, 1 μM) was no less than 10%. For the same molecule, the “% increase in Collagen I” value ([7]; procedure of Example 40, 1 μM) was no less than 10%, the “% decrease in Proliferation” value ([7]; procedure of Example 40, 10 μM) was no less than 10% and the “% decrease in Thrombomodulin” value ([7]; procedure of Example 40, 10 μM) was no less than 20%. For the same molecule, the “% increase in HLA-DR” value ([7]; procedure of Example 40, 10 μM) was no less than 10%, the “% increase in IL-6” value ([7]; procedure of Example 40, 10 μM) was no less than 10% and the “% decrease in IL-1α” value ([8]; 1 μM) was no less than 20%. The “% decrease in IL-8” value ([8]; 10 μM) was no less than 20%, the “% decrease in M-CSF” value ([8]; 10 μM) was no less than 10% and the “% decrease in TissueFactor” value ([8]; 10 μM) was no less than 10%. For the same molecule, the “% increase in sTNFα” value ([8]; 10 μM) was no less than 10%, the “% decrease in IL-1α” value [9] was no less than 10% and the “% decrease in MMP-9” value [9] was no less than 10%. For the same molecule, the “% increase in VCAM-1” value [9] was no less than 10%, the “% decrease in E-Selectin” value [10] was no less than 20% and the “mitochondrial morphology (elongation and networking of mitochondria)” value [11] was “elongation and networking of mitochondria promoted”. For the same molecule, the “% decrease in sTNFα” value ([12]; 1 μM) was no less than 10%, the “% decrease in sIL-17” value ([12]; 10 μM) was no less than 20% and the “% increase in sIL-2” value ([12]; 10 μM) was no less than 20%. The “% decrease in IL-8” value [13] was no less than 10%.
